Laboratory results published in patent US10647699B2, “Substituted 2-oxyimidazolylcarboxamides as pesticides” (Bayer CropScience Aktiengesellschaft, priority 2016, dated 2020).
Where two headings read alike, the source gives them in different places.

Legend:
[1] = test system: Myzus persicae; experiment: Myzus persicae oral test (MYZUPE O); format: in vivo; settings: for Emax at 0.8 ppm / Emax at 4 ppm / pest or weed control at 20 ppm: Myzus persicae, po, 120 h; for Emax at 0.8 ppm / Emax at 4 ppm: read-out: % efficacy; for pest or weed control at 20 ppm: read-out: efficacy
Description: Solvent: 100 parts by weight of acetone
To produce a suitable preparation of active compound, 1 part by weight of active compound is dissolved using the specified parts by weight of solvent and made up with water until the desired concentration is attained.
50 μl of the active compound preparation are transferred into microtitre plates and made up to a final volume of 200 μl with 150 μl of IPL41 insect medium (33%+15% sugar). Subsequently, the plates are sealed with parafilm, which a mixed population of green peach aphids (Myzus persicae) within a second microtitre plate is able to puncture and imbibe the solution through it.
After 5 days, the efficacy in % is determined. 100% means that all the aphids have been killed; 0% means that no aphids have been killed.
Myzus persicae—Oral Test (MYZUPE O)
After 5 or 6 days (dat), the efficacy in % is determined. 100% means that all the aphids have been killed; 0% means that no aphids have been killed.

[2] = log P by HPLC on reversed-phase columns (OECD Guideline 117), neutral range; format: physicochemical; settings: for chromatographic logP: reversed-phase (C18) HPLC column, read-out: LogP-neutral
[3] = test system: Aphis gossypii; experiment: Aphis gossypii spray test on cotton plants; format: in vivo; settings: after 6 days, application rate 20 ppm, cotton plants
Description: Aphis gossypii—Spray Test
Solvent: 14 parts by weight of dimethylformamide
Emulsifier: alkylaryl polyglycol ether
(§1) To produce a suitable preparation of active compound, 1 part by weight of active compound is dissolved using the specified parts by weight of solvent and made up with water containing an emulsifier concentration of 1000 ppm until the desired concentration is attained. To produce further test concentrations, the formulation is diluted with emulsifier-containing water. If the addition of ammonium salts or/and penetrants is required, these are each added in a concentration of 1000 ppm to the formulation solution.
Cotton plants (Gossypium hirsutum) which are heavily infested by the cotton aphid (Aphis gossypii) are sprayed with an active compound formulation of the desired concentration.
After 6 days, the kill in % is determined. 100% means that all the aphids have been killed; 0% means that no aphids have been killed.

[4] = test system: Myzus persicae; experiment: Myzus persicae spray test (MYZUPE), Chinese cabbage leaf discs; format: in vivo; settings: for Emax at 100 g/ha / pest or weed control at 500 g/ha: Myzus persicae, foliar, 120 h; for Emax at 100 g/ha: read-out: % efficacy; for pest or weed control at 500 g/ha: read-out: efficacy
Description: Myzus persicae—Spray Test
as §1, with “water.” for “water. If the addition of ammonium salts or/and penetrants is required, these are each added in a concentration of 1000 ppm to the formulation solution.”
Discs of Chinese cabbage leaves (Brassica pekinensis) infested by all stages of the green peach aphid (Myzus persicae) are sprayed with an active compound formulation of the desired concentration.
After 5 or 6 days, the efficacy in % is determined. 100% means that all the aphids have been killed; 0% means that no aphids have been killed.
Myzus persicae—Spray Test (MYZUPE)
Discs of Chinese cabbage leaves (Brassica pekinensis) infested by all stages of the green peach aphid (Myzus persicae) are sprayed with an active compound preparation of the desired concentration.
After the desired period of time, the efficacy in % is determined. 100% means that all the aphids have been killed; 0% means that no aphids have been killed.

[5] = after 5 days, application rate 20 ppm
[6] = after 5 days, application rate 500 g/ha
[7] = after 6 days, application rate 500 g/ha

Compound	efficacy [1, 5] [%]	LogP-neutral ([2]; pH 7.8)	efficacy [4, 6] [%]	also measured
CCN(C(=O)c1cnc(OC(C)C)n1C)c1cccnc1 [Example II-46]	100	1.7	100	efficacy (kill) [3]: 100%
CN(C(=O)c1cnc(Oc2cccc(C(F)(F)F)c2)n1C)c1cccnc1 [Example II-29]				Emax at 0.8 ppm ([1]; MYZUPE O, 0.8 ppm, 5 dat): 100%; Emax at 4 ppm ([1]; MYZUPE O, 4 ppm, 5 dat): 100%; pest or weed control at 20 ppm [1, 5]: 100%; chromatographic logP ([2]; HPLC, neutral range pH 7.8): 2.37; pest or weed control at 20 ppm ([3]; Aphis gossypii, 144 h, read-out: efficacy (kill)): 100%; Emax at 100 g/ha ([4]; MYZUPE, 100 g of ai/ha, 5 dat): 90%; pest or weed control at 500 g/ha [4, 6]: 100%
CSc1cccc(Oc2ncc(C(=O)N(C)c3cccnc3)n2C)c1 [Example II-26]	100	2.09	100	efficacy (kill) [3]: 100%
CN(C(=O)c1cnc(Oc2cc(F)cc(F)c2)n1C)c1cccnc1 [Example II-25]	100	2.01	90	efficacy (kill) [3]: 90%
CN(C(=O)c1cnc(Oc2ccc(F)cc2F)n1C)c1cccnc1 [Example II-17]	100	1.86		efficacy (kill) [3]: 100%; efficacy [4, 7]: 100%
CN(C(=O)c1cnc(OCCCF)n1C)c1cccnc1 [Example II-33]	100		90	LogP-neutral ([2]; HPLC, neutral range pH 7.8): 1.26; efficacy (kill) [3]: 100%
CCOc1ncc(C(=O)N(C)c2cccnc2)n1C [Example II-10]	100	1.19		efficacy (kill) [3]: 100%; efficacy [4, 7]: 100%
CN(C(=O)c1cnc(Oc2ccc(Oc3ccc(Oc4ccc(F)nc4)nc3)nc2)n1C)c1cccnc1 [Example II-50]	100	2.3	90	
CN(C(=O)c1cnc(Oc2ccc(C(F)(F)F)nc2)n1C)c1cccnc1 [Example II-56]	100	1.9	90	
CN(C(=O)c1cnc(Oc2cccc(C#N)c2)n1C)c1cccnc1 [Example II-72]	100		90	LogP-neutral ([2]; HPLC, neutral range pH 7.8): 1.52
COc1cncc(Oc2ncc(C(=O)N(C)c3cccnc3)n2C)c1 [Example II-60]	100	1.28	90	
COc1cc(Cl)cc(Oc2ncc(C(=O)N(C)c3cccnc3)n2C)c1 [Example II-88]	100	2.26	90	
Cn1c(C(=O)N(c2cccnc2)C2CC2)cnc1Oc1ccc(Cl)nc1 [Example II-90]	100			LogP-neutral ([2]; HPLC, neutral range pH 7.8): 1.8; efficacy ([4]; after 5 days, application rate 100 g/ha): 90%
CN(C(=O)c1cnc(Oc2cccc(S(C)(=O)=O)c2)n1C)c1cccnc1 [Example II-80]	100	1.31	100	
Cc1ccncc1Oc1ncc(C(=O)N(C)c2cccnc2)n1C [Example II-53]	100		90	LogP-neutral ([2]; HPLC, neutral range pH 7.8): 1.24
CCN(C(=O)c1cnc(Oc2ccc(F)nc2)n1C)c1cccnc1 [Example II-95]				Emax at 0.8 ppm [1]: 100%; Emax at 4 ppm [1]: 90%; pest or weed control at 20 ppm [1]: 100%; chromatographic logP ([2]; HPLC, neutral range pH 7.8): 1.55; Emax at 100 g/ha [4]: 100%; pest or weed control at 500 g/ha [4]: 100%
CCN(C(=O)c1cnc(Oc2ccc(Oc3ccc(Cl)nc3)nc2)n1C)c1cccnc1 [Example II-51]	100	2.26	100	
CN(C(=O)c1cnc(OC2CCCC2)n1C)c1cccnc1 [Example II-21]	90	1.83		efficacy [4, 7]: 90%
CCC(C)Oc1ncc(C(=O)N(C)c2cccnc2)n1C (stereo not shown) [Example II-20]	100	1.75		efficacy [4, 7]: 100%
CN(C(=O)c1cnc(Oc2cccnc2Cl)n1C)c1cccnc1 [Example II-66]	100		100	LogP-neutral ([2]; HPLC, neutral range pH 7.8): 1.45
Cc1cncc(Oc2ncc(C(=O)N(C)c3cccnc3)n2C)c1 [Example II-54]	100	1.31	90	
